How the values were obtained:
[1] = tested on: Rattus norvegicus; experiment: Anti-inflammatory activity in Rattus norvegicus Wistar albino (rat) assessed as inhibition of carrageenan-induced paw edema at 0.05 mmol/kg administered 30 min prior to carrageenan-challenge measured after 3 hr relative to control; type: functional
[2] = tested on: Rattus norvegicus; experiment: Anti-inflammatory activity in Rattus norvegicus Wistar albino (rat) assessed as inhibition of carrageenan-induced paw edema at 0.05 mmol/kg administered 30 min prior to carrageenan-challenge measured after 5 hr relative to control; type: functional
[3] = tested on: Rattus norvegicus; experiment: Antidiabetic activity in fasted glucose fed hyperglycemic normal Rattus norvegicus Wistar albino (rat) assessed as blood glucose level at 0.05 mmol/kg administered 30 min prior to glucose-challenge measured after 60 min (reference value: 126.5 +/- 3.8 mg/dl); type: functional
[4] = tested on: Rattus norvegicus; experiment: Ulcerogenic activity in fasted Rattus norvegicus Wistar albino (rat) at 0.15 mmol/kg , po measured after 6 hr; type: toxicity, organism-based; details: in vivo

Which inhibition in vivo at 50 µmol/kg [1] does the source give for `NS(=O)(=O)c1ccc(N2N=C(c3cccc(O)c3)C[C@H]2/C=C/c2ccccc2)cc1` here?
Its inhibition in vivo at 50 µmol/kg is 39.9%.

What about the inhibition in vivo at 50 µmol/kg [2] of the same molecule?
The inhibition in vivo at 50 µmol/kg was 59.2%.

And the Activity [3]?
Its Activity is 131 mg/dL.

With `NS(=O)(=O)c1ccc(N2N=C(c3cccc(O)c3)C[C@H]2c2ccco2)cc1` as the molecule, how does the inhibition in vivo at 50 µmol/kg [1] read?
Its inhibition in vivo at 50 µmol/kg is 35.8%.

And the inhibition in vivo at 50 µmol/kg [2]?
Its inhibition in vivo at 50 µmol/kg is 29.6%.

And the Activity [3]?
The Activity was 133 mg/dL.

`NS(=O)(=O)c1ccc(N2N=C(c3cccc(O)c3)C[C@H]2c2c3ccccc3cc3ccccc23)cc1` was tested. Which inhibition in vivo at 50 µmol/kg [1] did it give?
Its inhibition in vivo at 50 µmol/kg is 59.8%.

And the Activity [4]?
The Activity was “Non-toxic”.

And the inhibition in vivo at 50 µmol/kg [2]?
The inhibition in vivo at 50 µmol/kg was 77.7%.

What about the Activity [3] of the same molecule?
Its Activity is 136.6 mg/dL.

How did the inhibition in vivo at 50 µmol/kg [1] turn out when `NS(=O)(=O)c1ccc(N2N=C(c3cccc(O)c3)C[C@H]2c2ccccc2)cc1` was run?
The inhibition in vivo at 50 µmol/kg was 35.8%.

And the Activity [4]?
Its Activity is “Non-toxic”.

What about the inhibition in vivo at 50 µmol/kg [2] of the same molecule?
The inhibition in vivo at 50 µmol/kg was 77.7%.

What about the Activity [3] of the same molecule?
The Activity was 126.3 mg/dL.

How did the inhibition in vivo at 50 µmol/kg [1] turn out when `NS(=O)(=O)c1ccc(N2N=C(c3cccc(O)c3)C[C@H]2c2ccc(Cl)cc2)cc1` was run?
The inhibition in vivo at 50 µmol/kg was 19.2%.

And the inhibition in vivo at 50 µmol/kg [2]?
Its inhibition in vivo at 50 µmol/kg is 51.8%.

And the Activity [3]?
The Activity was 134 mg/dL.

With `COc1ccc([C@@H]2CC(c3cccc(O)c3)=NN2c2ccc(S(N)(=O)=O)cc2)cc1` as the molecule, how does the inhibition in vivo at 50 µmol/kg [1] read?
Its inhibition in vivo at 50 µmol/kg is 64.7%.

And the inhibition in vivo at 50 µmol/kg [2]?
The inhibition in vivo at 50 µmol/kg was 62.9%.

What about the Activity [3] of the same molecule?
Its Activity is 116.5 mg/dL.

Which inhibition in vivo at 50 µmol/kg [1] does the source give for `Cc1ccc([C@@H]2CC(c3cccc(O)c3)=NN2c2ccc(S(N)(=O)=O)cc2)cc1` here?
Its inhibition in vivo at 50 µmol/kg is 64.7%.

And the inhibition in vivo at 50 µmol/kg [2]?
Its inhibition in vivo at 50 µmol/kg is 66%.

And the Activity [3]?
Its Activity is 138.6 mg/dL.

With `NS(=O)(=O)c1ccc(N2N=C(c3cccc(O)c3)C[C@H]2c2ccc(O)cc2)cc1` as the molecule, how does the inhibition in vivo at 50 µmol/kg [1] read?
Its inhibition in vivo at 50 µmol/kg is 64.7%.

And the Activity [4]?
The Activity was “Non-toxic”.

What about the inhibition in vivo at 50 µmol/kg [2] of the same molecule?
The inhibition in vivo at 50 µmol/kg was 77.7%.

What about the Activity [3] of the same molecule?
The Activity was 121 mg/dL.

For `NS(=O)(=O)c1ccc(N2N=C(c3cccc(O)c3)C[C@H]2c2ccccc2Cl)cc1`, which inhibition in vivo at 50 µmol/kg [1] is on record?
Its inhibition in vivo at 50 µmol/kg is 32.6%.

What about the inhibition in vivo at 50 µmol/kg [2] of the same molecule?
Its inhibition in vivo at 50 µmol/kg is 70.3%.

And the Activity [3]?
Its Activity is 121 mg/dL.

Which inhibition in vivo at 50 µmol/kg [1] does the source give for `NS(=O)(=O)c1ccc(N2N=C(c3cccc(O)c3)C[C@H]2c2ccccc2O)cc1` here?
The inhibition in vivo at 50 µmol/kg was 35.4%.

And the inhibition in vivo at 50 µmol/kg [2]?
The inhibition in vivo at 50 µmol/kg was 55.5%.

And the Activity [3]?
The Activity was 133 mg/dL.

`COc1ccc([C@@H]2CC(c3cccc(O)c3)=NN2c2ccc(S(N)(=O)=O)cc2)cc1OC` was tested. Which inhibition in vivo at 50 µmol/kg [1] did it give?
Its inhibition in vivo at 50 µmol/kg is 55.9%.

What about the inhibition in vivo at 50 µmol/kg [2] of the same molecule?
Its inhibition in vivo at 50 µmol/kg is 66.7%.

What about the Activity [3] of the same molecule?
Its Activity is 111 mg/dL.

How did the inhibition in vivo at 50 µmol/kg [1] turn out when `COc1cc([C@@H]2CC(c3cccc(O)c3)=NN2c2ccc(S(N)(=O)=O)cc2)cc(OC)c1OC` was run?
Its inhibition in vivo at 50 µmol/kg is 51.9%.

What about the inhibition in vivo at 50 µmol/kg [2] of the same molecule?
The inhibition in vivo at 50 µmol/kg was 74.4%.

What about the Activity [3] of the same molecule?
The Activity was 94.6 mg/dL.

How did the inhibition in vivo at 50 µmol/kg [1] turn out when `Cc1ccc(-c2cc(C(F)(F)F)nn2-c2ccc(S(N)(=O)=O)cc2)cc1` [CELECOXIB] was run?
The inhibition in vivo at 50 µmol/kg was 75.9%.

And the inhibition in vivo at 50 µmol/kg [2]?
The inhibition in vivo at 50 µmol/kg was 82.2%.

`Cc1ccc(S(=O)(=O)NC(=O)NN2CC3CCCC3C2)cc1` (configuration not stated) [GLICLAZIDE] was tested. Which Activity [3] did it give?
The Activity was 85.83 mg/dL.
